Measurements published in patent US20230044248A1, “COMBINED INHIBITION OF PD-1, TGFBeta AND ATM TOGETHER WITH RADIOTHERAPY FOR THE TREATMENT OF CANCER” (ARES TRADING S.A., priority 2019, published 2023).

Key:
4T1 cells [1] = assay: Example 1: bintrafusp alfa, RT and Compound A in the 4T1 mammary tumor model; assay type: in vivo, BALB/c mice; details: mice sacrificed at tumor volume ≈2000 mm^3; Compound A 100 mg/kg p.o. day 0-10 where given
4T1 cells [2] = assay: Example 2: dosing schedule of Compound A in the triple combination, 4T1 mammary tumor model; details: dual combination without Compound A
Procedure: BALB/c mice were inoculated intramuscularly (i.m.) with 0.5×10^5 4T1 cells (day −7) and treated (n=10 mice/group) with isotype control (400 μg i.v.; day 0, 2, 4)+vehicle control (0.2 mL, p.o., day 0-17), bintrafusp alfa (492 μg i.v.; day 0, 2, 4)+RT (8 Gy, day 0-3), or bintrafusp alfa+RT+Compound A (100 mg/kg, p.o, days 0-3, days 0-10, or day 0-17). Tumor volumes were measured twice weekly and presented as (A) mean±SEM or (B) individual tumor volumes. P-values were calculated by two-way RM ANOVA with Tukey's post-test. (C) For survival analysis, mice were sacrificed when tumor volumes reached ≈2000 mm^3 and median survival times were calculated.
The effect of different dosing schedules of Compound A on the antitumor activity of the triple combination therapy was evaluated in the 4T1 mammary tumor model. […]
(§1) Tumor volumes were calculated with the following formula: tumor volume (mm^3)=tumor length×width×height×0.5236. Tumor growth inhibition (TGI) was calculated with the following formula: TGI (%)=[1−(Ti−T0)/(Vi−V0)]×100, where Ti is the average tumor volume (mm^3) of a treatment group on a given day, TO is the average tumor volume of the treatment group on the first day of treatment, Vi is the average tumor volume of the vehicle control group on the same day as Ti, and V0 is the average tumor volume of the vehicle control group on the first day of treatment. […]

4T1 cells [3] = assay: Example 3: triple combination versus dual and monotherapy controls, 4T1 mammary tumor model; details: day 18
Procedure: BALB/c mice were inoculated intramuscularly (i.m.) with 0.5×10^5 4T1 cells (day −7) and treated (n=10 mice/group) with isotype control (400 μg i.v.; day 0, 2, 4)+vehicle control (0.2 mL, p.o., day 0-4), bintrafusp alfa (492 μg i.v.; day 0, 2, 4)+vehicle control, RT (8 Gy, day 0-3)+isotype control+vehicle control, Compound A (100 mg/kg, p.o, days 0-4)+isotype control, bintrafusp alfa+RT, bintrafusp alfa+Compound A, RT+Compound A, or bintrafusp alfa+RT+Compound A. Tumor volumes were measured twice weekly and presented as (A) mean±SEM or (B) individual tumor volumes. P-values were calculated by two-way RM ANOVA with Tukey's post-test. (C) For survival analysis, mice were sacrificed when tumor volumes reached ≈2000 mm^3 and median survival times were calculated. […]
as §1

4T1 cells [4] = assay: Example 4: triple combination with various RT doses versus bintrafusp alfa+RT, 4T1 mammary tumor model; details: RT 8Gy, QDx4
Procedure: Balb/c mice were inoculated with 4T1 cells (0.5×10^6) in the right thigh muscle (day −7). At day 0, when average tumor volumes reached 150 mm^3, mice were treated (n=10 mice/group) with isotype control (400 μg i.v.; Days 0, 2, 4), Bintrafusp alfa (492 μg/mouse i.v.; Days 0, 2, 4)+RT (8Gy, QDx4), or bintrafusp alfa+Compound A (100 mg/kg p.o., QDx4)+RT (8Gy or 6Gy or 4Gy or 2Gy, QDx4). Tumor volumes were measured twice weekly and presented as mean±SEM. P-values were calculated by two-way ANOVA with Sidack's or Tukey's post-test. P-values comparing median survival were calculated with the Log-rank (Mantel-Cox) test.
Treatment was initiated on day 0 when average tumor volume reached ˜150 mm^3. Mice were sacrificed when tumor volumes reached ˜2500 mm^3. […]
Tumor volumes were calculated with the following formula: tumor volume (mm^3)=tumor length×width×height×0.5236.
To compare the percentage survival between different treatment groups, Kaplan-Meier survival curves were generated. Body weight was measured twice weekly and mice were sacrificed when their tumor volume exceeded 2,000 mm^3.
Statistical analyses were performed using GraphPad Prism Software, version 8.0 or 8.0.1. […] A Kaplan-Meier plot was generated to show survival by treatment group and significance was assessed by log-rank (Mantel-Cox) test.

For “bintrafusp alfa and RT: dual combination therapy of bintrafusp alfa with radiotherapy (RT)”, the median survival (4T1 cells [1]) was 26 days, the median survival (4T1 cells [2]) was 26 days and the “antitumor activity of dual combination therapy relative to the respective monotherapies” value (4T1 cells [3]) was “enhanced antitumor activity”. It also gave a median survival (4T1 cells [4]) of 26 days.
